Data reported in patent US9388160B2, “Quinazoline derivatives as kinases inhibitors and methods of use thereof” (TELIGENE LTD., priority 2011, dated 2016).
pIC50: −log10 of the molar value.

Experiments:
TA1535 = experiment: Ames Assay, plate incorporation, strain TA1535; settings: with S9 mixture
Experimental: (§1) A representative number of compounds were tested in Ames Assay for assess the mutagenic potential.
(§2) Preparations of culture media/plates and reagents: 0.5 mmol L-histidine-0.5 mmol/L biotin solution; 20% glucose solution; nutrient broth; KCl salt solution (1.65 M KCl+0.4 M MgCl2); 0.2 M phosphate buffer (pH 7.4); co-factors (NADP; glucose 6-phosphate) for S9 mixture; top agar medium; minimal agar medium (Vogel-Bonner medium E); bottom agar medium.
(§3) Preparation of the enriched culture: Take nutrient broth 5 mL, added it to sterile tubes with the cryopreserved strain culture TA1535 and TA1537. After inoculation in nutrient broth, the cultures were kept at 37° C. with oscillation of 100 times/min for 10 hours. The strain cultures should have about 1˜2×10^9 viable cells per milliliters.
(§4) Preparation of 10 ml S9 mixture: Co-factor mixture 9 mL by glucose 6-phosphate 42.3 mg, […] 14.2 mg, 6-phosphate dehydrogenase (3 unit/μl) 10 μl plus riboflavin (9.6 mg dissolved in 700 μL water), and then mixed with 1 ml of the induced rat S9.
(§5) Plate incorporation method: In the experiment, place 2 ml of the top agar medium containing 0.5 mmol/L histidine-0.5 mmol/L biotin into the test tubes kept in 45° C. water bath. Into a 1.5 ml sterile Eppendorf tube, it was added 0.1 ml of the bacterial strain in the enriched broth, 0.1 ml of the test compound solution and 0.5 ml of the S9 mixture, thoroughly mixed and incubated for 30 minutes at 37° C. with shaker speed at 150 rpm/min. The liquid mixture in the Eppendorf tube was added to the top agar medium. After mixing it was poured rapidly into the plates with bottom agar plate, turning the plates to allow uniform distribution. Initially placed horizontally for condensation and then placed invertly for 48 hours at 37° C. Count and record the number of revertant colonies per dish.
(§6) Experiment controls: In addition to the set of doses (3.3, 8.3, 33.3 and 66.6 μM) for the test compounds, here are the controls: blank control, sterile control, solvent control, positive mutagen control (2-aminoanthracene at 10 μg/dish).

TA1537 = experiment: Ames Assay, plate incorporation, strain TA1537; settings: with S9 mixture
Experimental: as §1, §2, §3, §4, §5, §6

EGFR = EGFR (Homo sapiens (Human), UniProt P00533); experiment: In vitro EGFR kinase activity inhibition assay (Kinase-Glo Plus luminescence); type: biochemical; settings: 10 μM ATP, poly(Glu,Tyr) substrate
Experimental: (§7) • 1. […] It measures kinase activity by quantitating the amount of ATP remaining in solution following a kinase reaction. The luminescent signal from the assay is correlated with the amount of ATP present and is inversely correlated with the amount of kinase activity. […] The luminescence data were analyzed using the computer software, Graphpad Prism. […] The values of % activity versus a series of compound concentrations were then plotted using non-linear regression analysis of Sigmoidal dose-response curve generated with the equation Y=B+(T−B)/1+10^((LogEC50−X)×Hill Slope), where Y=percent activity, B=minimum percent activity, T=maximum percent activity, X=logarithm of compound and Hill Slope=slope factor or Hill coefficient. The IC50 value was determined by the concentration causing a half-maximal percent activity.

EGFR(T790M/L858R) = EGFR(T790M/L858R) (Homo sapiens (Human), UniProt P00533, L858R/T790M); experiment: In vitro EGFR(T790M/L858R) kinase activity inhibition assay (Kinase-Glo Plus luminescence); type: biochemical; settings: 10 μM ATP, poly(Glu,Tyr) substrate
Experimental: as §7

SK-Br-3 Cell line = experiment: Cell proliferation assay (MTT), SK-Br-3; type: cell-based; settings: Homo sapiens, 72 hours treatment
Experimental: (§8) A representative number of compounds were assayed against different cancer cell lines such as NCI-H-1975 or A431 using the cell proliferation assays:
(§9) Cell Proliferation Assays: • 1. 5×10^3 cells per well in 100 μl of medium were seeded in 96-well plate, here the medium contained 5% FBS • 2. 24 hours later, 100 μl fresh medium was added with various concentrations of compounds into each well, while the medium here was free of FBS • 3. After the cells were treated with compounds for 72 hours, 20 μl MTT (5 mg/ml) was added into each well, and then the assay plate was incubated at 37° C. for 4 more hours. • 4. The assay plate was centrifuged at 800 g for 10 min. The medium was aspirated, 150 μl DMSO was added into each well. The plate was gently shaked for 10 min. • 5. The absorbance at 570 nm was measured on the plate reader. • 6. IR %=(WC−WT)/WC*100%.

A431 Cell line = experiment: Cell proliferation assay (MTT), A431; type: cell-based; settings: Homo sapiens, A-431, 72 hours treatment
Experimental: as §8, §9

TA1535 and TA1537 = experiment: Ames Assay, overall mutagenic potential; settings: TA1535 and TA1537, with S9 mixture, 3.3-66.6 μM
Experimental: as §1, §2, §3, §4
Plate incorporation method: In the experiment, place 2 ml of the top agar medium containing 0.5 mmol/L histidine-0.5 mmol/L biotin into the test tubes kept in 45° C. water bath. […]

[1] = system: NCI-H-1975 cell line xenograft; experiment: In vivo subcutaneous NCI-H-1975 cell line xenograft model in nude mice; parameters: species or system Balb/c nude mice
Excerpt: A representative protocol for the in vivo experiment is as followed to establish the subcutaneous NCI-H-1975 cell line xenograft model in nude mice and to evaluate the in vivo therapeutic efficacy of the compounds: Animals: Male Balb/c nude mice (6˜8 weeks old) were obtained from SLAC Laboratory Animal, Shanghai, China. Animals were maintained under SPF conditions in sterile filter top cages and housed on HEPA-filtered ventilated racks. Animals received sterile rodent chow and water ad libitum. Cell line: NCI-H-1975 cell line, S.c. Xenograft Models in Athymic Mice: Cells for implantation into athymic mice were harvested and pelleted by centrifugation at 1200 r/min for 5 min. Cells were washed once and resuspended in sterile PBS buffer with 5×10^6 in 200 μl. Then cells were implanted s.c. into the right scapular region of each mouse and allowed to grow to 200-300 mm^3 before the administration of compound. Preparation of the Dose Formulation: each compound was suspensioned in 0.5% CMC-Na. Randomization: When tumor volumes approach 200-300 mm^3, the mice will be randomized into 5 groups according to the tumor volume. The day will be denoted as D1 and the treatments will be started at this day. Administered: Dose will be administered with oral gavage needle once daily for number of days. Treatment of compounds administered in 0.5% CMC—Na by p.o. gavage was initiated when tumors were 200˜300 mm^3 in volume. Observations: After inoculation, the animals will be checked daily for morbidity and mortality. At the time of routine monitoring, the animals will be checked for any effects of tumor growth and treatments on normal behavior such as mobility, body weight gain/loss (body weights will be measured twice weekly or every other day), eye/hair matting and any other abnormal effect. Death and observed clinical signs will be recorded on the basis of the numbers of animals within each subset. Tumor Size Measurements: Tumor volume was determined by measurement with electronic vernier calipers every 3 days and tumor volume was calculated as the product of its length×width^2×0.5. Effect studies: Tumor volume was expressed on indicated days as the mean tumor volume±SD. Percentage (%) inhibition values were measured for drug-treated mice compared with vehicle-treated mice and are calculated as follows: Tumor growth inhibition(TGI, %)=100−[MTV treated/MTV control]×100. Significant differences between the treated versus the control groups (p<0.05) were determined using t test. At study endpoint, after blood collection, mice were practicsed euthanasia by cervical dislocation, the tumor tissue was collected first, then abdominal cavity was cut open, liver and spleen were excised, then weight after the gallblader was removed respectively. Organ weight and Organ/body weight ratios between the treated versus the control groups were compared. Ratios was calculated as follows: Ratios=Organ weight/(body weight-tumor weight). Both organ weight and Organ/body weight ratios were also expressed as mean±SD, and significant differences between the treated versus the control groups (p<0.05) were determined using t test.
The following Table D lists compounds representative of the invention and their activity in subcutaneous NCI-H-1975 cell line xenograft model in nude mice described above. Compound 11 and Dacomitinib were dosed at 15 mg/kg by oral gavage once daily for number of days. Tumor growth inhibition (TGI, %) was calculated.

[2] = Day 3, 15 mg/kg oral gavage once daily
[3] = Day 7, 15 mg/kg oral gavage once daily

Sequence of EGFR (P00533 25-1210): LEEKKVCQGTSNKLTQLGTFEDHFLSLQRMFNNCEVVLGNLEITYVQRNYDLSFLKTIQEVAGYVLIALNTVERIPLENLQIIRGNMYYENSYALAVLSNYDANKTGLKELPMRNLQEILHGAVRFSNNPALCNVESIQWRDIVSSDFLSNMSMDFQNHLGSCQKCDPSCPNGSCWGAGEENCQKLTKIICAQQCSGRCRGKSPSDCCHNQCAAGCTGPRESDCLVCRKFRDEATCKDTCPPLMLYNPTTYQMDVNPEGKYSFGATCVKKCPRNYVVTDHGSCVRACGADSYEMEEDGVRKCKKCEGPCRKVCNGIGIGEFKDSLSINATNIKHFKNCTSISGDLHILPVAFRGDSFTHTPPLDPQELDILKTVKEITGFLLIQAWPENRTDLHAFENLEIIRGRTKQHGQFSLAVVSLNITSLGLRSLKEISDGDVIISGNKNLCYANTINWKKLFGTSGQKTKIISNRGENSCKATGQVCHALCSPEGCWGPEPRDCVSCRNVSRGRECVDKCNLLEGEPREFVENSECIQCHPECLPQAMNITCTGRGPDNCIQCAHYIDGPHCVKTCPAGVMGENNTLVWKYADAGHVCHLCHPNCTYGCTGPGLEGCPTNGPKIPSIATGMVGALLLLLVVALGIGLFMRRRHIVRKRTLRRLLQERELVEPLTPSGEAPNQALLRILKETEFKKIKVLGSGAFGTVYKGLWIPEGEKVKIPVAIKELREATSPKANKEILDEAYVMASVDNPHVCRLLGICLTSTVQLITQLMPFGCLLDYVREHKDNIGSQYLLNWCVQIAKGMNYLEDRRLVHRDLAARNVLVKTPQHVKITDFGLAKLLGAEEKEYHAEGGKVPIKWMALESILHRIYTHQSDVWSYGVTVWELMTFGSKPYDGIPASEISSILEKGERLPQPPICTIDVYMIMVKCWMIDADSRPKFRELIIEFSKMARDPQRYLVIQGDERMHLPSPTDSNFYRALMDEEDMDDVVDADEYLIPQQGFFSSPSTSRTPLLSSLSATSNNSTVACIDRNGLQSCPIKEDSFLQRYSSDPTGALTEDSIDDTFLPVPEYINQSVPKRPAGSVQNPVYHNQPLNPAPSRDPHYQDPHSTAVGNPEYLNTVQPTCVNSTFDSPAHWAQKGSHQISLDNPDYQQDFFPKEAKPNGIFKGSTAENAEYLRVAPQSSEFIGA
Sequence of EGFR(T790M/L858R) (P00533 25-1210 T790M/L858R): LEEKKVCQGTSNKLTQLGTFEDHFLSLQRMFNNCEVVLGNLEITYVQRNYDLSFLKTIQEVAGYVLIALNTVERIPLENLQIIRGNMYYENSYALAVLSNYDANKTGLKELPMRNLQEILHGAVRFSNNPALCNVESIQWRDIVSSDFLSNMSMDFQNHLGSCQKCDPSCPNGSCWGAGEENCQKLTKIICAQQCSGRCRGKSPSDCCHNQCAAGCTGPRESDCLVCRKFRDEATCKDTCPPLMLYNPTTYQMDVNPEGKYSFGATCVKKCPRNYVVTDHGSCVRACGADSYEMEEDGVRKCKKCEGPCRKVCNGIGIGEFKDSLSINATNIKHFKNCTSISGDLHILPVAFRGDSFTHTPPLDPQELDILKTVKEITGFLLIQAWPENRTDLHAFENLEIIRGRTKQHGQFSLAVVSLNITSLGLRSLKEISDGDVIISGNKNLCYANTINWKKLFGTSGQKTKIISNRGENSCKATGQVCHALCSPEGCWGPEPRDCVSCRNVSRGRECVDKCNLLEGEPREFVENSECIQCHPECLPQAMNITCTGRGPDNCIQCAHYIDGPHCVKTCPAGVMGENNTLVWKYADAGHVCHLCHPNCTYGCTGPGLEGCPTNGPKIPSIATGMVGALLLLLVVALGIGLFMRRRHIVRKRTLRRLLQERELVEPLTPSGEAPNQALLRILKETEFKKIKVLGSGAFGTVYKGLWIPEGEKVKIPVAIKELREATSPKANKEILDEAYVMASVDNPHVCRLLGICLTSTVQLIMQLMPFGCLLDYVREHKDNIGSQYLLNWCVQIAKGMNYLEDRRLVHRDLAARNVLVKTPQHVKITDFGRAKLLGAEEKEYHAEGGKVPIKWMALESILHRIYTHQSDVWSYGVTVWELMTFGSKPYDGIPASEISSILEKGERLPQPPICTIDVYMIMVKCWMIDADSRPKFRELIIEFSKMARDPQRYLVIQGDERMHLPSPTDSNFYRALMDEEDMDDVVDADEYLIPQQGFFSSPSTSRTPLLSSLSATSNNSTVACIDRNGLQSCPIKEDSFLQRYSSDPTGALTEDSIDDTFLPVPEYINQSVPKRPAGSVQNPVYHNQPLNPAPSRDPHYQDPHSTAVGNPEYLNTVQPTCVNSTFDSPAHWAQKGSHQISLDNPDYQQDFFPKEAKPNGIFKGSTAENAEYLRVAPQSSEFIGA

`Nc1ccc2cc3ccccc3cc2c1` [2-aminoanthracene, reference compound] was tested, and the “TA1535 Colony number” value (TA1535; 17.27 uM (10 μg/dish)) was 205 and the “TA1537 Colony number” value (TA1537; 17.27 uM (10 μg/dish)) was 260.
For `C#Cc1cccc(Nc2ncnc3cc(OCC)c(NC(=O)/C=C/CN4CCCCC4)cc23)c1` [Compound 11, (E)-N-(7-ethoxy-4-((3-ethynylphenyl)amino)quinazolin-6-yl)-4-(piperidin-1-yl)but-2-enamide], the pIC50 (EGFR) was 8.77, the pIC50 (EGFR(T790M/L858R)) was 7.66 and the pIC50 (SK-Br-3 Cell line) was 7.07. The pIC50 (A431 Cell line) was 5.53, the “TA1535 Colony number” value (TA1535; 3.33 uM) was 10 and the “TA1535 Colony number” value (TA1535; 8.33 uM) was 13. The “TA1535 Colony number” value (TA1535; 33.3 uM) was 18, the “TA1535 Colony number” value (TA1535; 66.6 uM) was 12 and the “TA1537 Colony number” value (TA1537; 3.33 uM) was 14. For the same compound, the “TA1537 Colony number” value (TA1537; 8.33 uM) was 12, the “TA1537 Colony number” value (TA1537; 33.3 uM) was 23 and the “TA1537 Colony number” value (TA1537; 66.6 uM) was 22. For the same compound, the “Ames Assay result (mutagenic potential)” value (TA1535 and TA1537) was “negative”, the “Tumor growth inhibition compared with Dacomitinib” value ([1]; 15 mg/kg oral gavage once daily) was “significant better tumor growth inhibition compared with Dacomitinib” and the “Tumor growth inhibition (TGI, %)” value [1, 2] was 30.11%. For the same compound, the “Tumor growth inhibition (TGI, %)” value [1, 3] was 83.25%.
For `C#Cc1cccc(Nc2ncnc3cc(OC)c(NC(=O)/C=C/CN4CCCCC4)cc23)c1` [Compound 12, (E)-N-(4-((3-ethynylphenyl)amino)-7-methoxyquinazolin-6-yl)-4-(piperidin-1-yl)but-2-enamide], the pIC50 (EGFR) was over 8.00, the pIC50 (EGFR(T790M/L858R)) was over 7.00 and the pIC50 (SK-Br-3 Cell line) was 6.94. For the same compound, the pIC50 (A431 Cell line) was 5.31, the “TA1535 Colony number” value (TA1535; 3.33 uM) was 17 and the “TA1535 Colony number” value (TA1535; 8.33 uM) was 9. For the same compound, the “TA1535 Colony number” value (TA1535; 33.3 uM) was 17, the “TA1535 Colony number” value (TA1535; 66.6 uM) was 9 and the “TA1537 Colony number” value (TA1537; 3.33 uM) was 8. The “TA1537 Colony number” value (TA1537; 8.33 uM) was 22, the “TA1537 Colony number” value (TA1537; 33.3 uM) was 47 and the “TA1537 Colony number” value (TA1537; 66.6 uM) was 66. The “Ames Assay result (mutagenic potential)” value (TA1535 and TA1537) was “positive”.
For `COc1cc2ncnc(Nc3ccc(F)c(Cl)c3)c2cc1NC(=O)/C=C/CN1CCCCC1` [Dacomitinib, reference compound], the pIC50 (SK-Br-3 Cell line) was 6.65, the pIC50 (A431 Cell line) was 4.71 and the “Tumor growth inhibition (TGI, %)” value [1, 2] was 19.86%. The “Tumor growth inhibition (TGI, %)” value [1, 3] was 75.36%.
